Laboratory results from patent US9512059B2, “Killing of bed bugs” (BEDOUKIAN RESEARCH, INC., priority 2012, dated 2016).

These compounds were tested on bed bugs (assay: forced exposure toxicity test on treated filter paper circles). Settings: compound diluted 5% in acetone, bed bug mortality at 24 hours.
Assay type: in vivo, Cimex species
Method: Toxicity of compounds of structure (I) was determined by forced exposure testing under the following protocol. Five filter paper circles were laid on a flat surface and treated with the test compounds. Five replicates of five bed bugs were released onto each of the treated paper circles. Petri dish bottoms with circular openings were placed over the treated paper circles and served as the exposure arenas. The sides of the Petri dish bottoms were also painted with Fluon to prevent the bed bugs from climbing the sides. The bed bugs were thus confined to the treated paper circles for the duration of the test. Observations were made for mortality of the bed bugs at 24 hours.

Structure (SMILES)	Mortality @ 24 hours
CCCCC1CC(=O)C=C(C)C1 (centres unmarked) [3-Methyl-5-Butyl-2-Cyclohexen-1-one]	50%
CCC1CC(=O)C=C(C)C1 (centres unmarked) [3-Methyl-5-Ethyl-2-Cyclohexenone]	78%
CC1=CC(O)CC(CC(C)C)C1 (centres unmarked) [3-Methyl-5-Isobutyl-2-cyclohexenol]	10%
CCCC1CC(C)=CC(O)C1 (centres unmarked) [3-Methyl-5-propyl-2-cyclohexenol]	60%
CCCC1CC(=O)C=C(C)C1 (centres unmarked) [3-Methyl-5-propyl-2-cyclohexenone]	100%
